Measurements published in US6288091A, “Antiherpes virus compounds and methods for their preparation and use” (Boehringer Ingelheim Ltd., priority 1999, dated 2001).
Read-outs that look alike come from different tables or passages of the source.

Experiments:
HSV-1 strain F or KOS = test: Inhibition of herpes simplex virus (HSV-1) replication in cell culture (BHK-21 cells, glycoprotein C ELISA); assay type: cell-based
Procedure, shortened: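 BHK-21 clone 13 cells infected with HSV-1 F or KOS at MOI 0.05 PFU/cell for 1 h at 37°, washed, then treated with compound in α-MEM/2% FBS for 24 h. Late glycoprotein C quantified by ELISA (mAb C11, HRP/OPD, 450 nm); EC50 from % inhibition.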

HCMV (strain AD169) = test: Inhibition of HCMV replication, ELISA assay (Hs-68 cells); assay type: cell-based, Human Cytomegalovirus (HCMV); details: read-out: ELISA CMV EC50
Procedure, shortened: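 Hs-68 fibroblasts at 80–90% confluency infected with HCMV AD169 at MOI 0.01 PFU/cell for 2 h, washed, then cultured 8 days at 37 °C with test compound in DMEM/5% FBS. Late protein p28 detected by ELISA (mAb UL99, HRP/OPD, 450 nm); EC50 from % inhibition of replication.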

[1] = Human alphaherpesvirus 1, BHK-21, Group 1 Table 5 entries
[2] = Human betaherpesvirus 5, AD169, Hs68, Group 1 Table 5 entries
[3] = Human alphaherpesvirus 1, BHK-21, Group 1 Table 6 entries
[4] = Human betaherpesvirus 5, AD169, Hs68, Group 1 Table 6 entries
[5] = Human alphaherpesvirus 1, BHK-21, Group 2 Table 1 entries
[6] = Human betaherpesvirus 5, AD169, Hs68, Group 2 Table 1 entries

SMILES	EC50 (HSV-1 strain F or KOS; [3])	EC50 (HCMV (strain AD169); [4])	EC50 (HSV-1 strain F or KOS; [5])	EC50 (HCMV (strain AD169); [6])	also measured
CN(C(=O)OC(C)(C)C)[C@@H](Cc1ccccc1)C(=O)Nc1ccc(-c2csc(N)n2)cc1 [Example 10]	–	–	–	–	EC50 (HSV-1 strain F or KOS; [1]): 59 nM; EC50 (HCMV (strain AD169); [2]): 2500 nM
Nc1nc(-c2ccc(NC(=O)[C@H]3CCC(=O)N3CC3CCCCC3)cc2)cs1 [Example 3]	2100 nM	1400 nM	–	–	–
CCCC(CCC)NC(=O)Nc1ccc(-c2csc(N)n2)cc1 [Example 11]	–	–	8000 nM	1300 nM	–
Nc1nc(-c2ccc(NC(=O)[C@H](Cc3ccccc3)NS(=O)(=O)N3CCOCC3)cc2)cs1 [Example 25]	–	–	–	–	EC50 (HSV-1 strain F or KOS; [1]): 100 nM; EC50 (HCMV (strain AD169); [2]): 600 nM
CCCCN(CCCC)C(=O)Nc1ccc(-c2csc(NC(=O)OC(C)(C)C)n2)cc1 [Example 15]	–	–	> 6000 nM	1000 nM	–
CN(CCc1ccccn1)C(=O)Nc1ccc(-c2csc(NC(=O)OC(C)(C)C)n2)cc1 [Example 14]	–	–	3200 nM	1500 nM	–
Nc1nc(-c2ccc(NC(=O)[C@@H]3CCCN3C(=O)c3ccccc3)cc2)cs1 [Example 5]	170 nM	63000 nM	–	–	–
CC(C)(C)OC(=O)N1CCC[C@@H]1C(=O)Nc1ccc(-c2csc(N)n2)cc1 [Example 8]	1800 nM	11000 nM	–	–	–
CC(C)(C)CC(=O)N[C@@H](Cc1ccccc1)C(=O)Nc1ccc(-c2csc(N)n2)cc1 [Example 19]	–	–	–	–	EC50 (HSV-1 strain F or KOS; [1]): 40 nM; EC50 (HCMV (strain AD169); [2]): 3800 nM
Nc1nc(-c2ccc(NC(=O)[C@H]3CCCN3C(=O)C3CCCCC3)cc2)cs1 [Example 10]	25 nM	600 nM	–	–	–
Nc1nc(-c2ccc(NC(=O)[C@H]3CCCN3C(=O)c3ccccc3)cc2)cs1 [Example 9]	590 nM	300 nM	–	–	–
Nc1nc(-c2ccc(NC(=O)[C@H](Cc3ccccc3)N(Cc3ccccc3)C(=O)C3CCCCC3)cc2)cs1 [Example 11]	–	–	–	–	EC50 (HSV-1 strain F or KOS; [1]): 510 nM; EC50 (HCMV (strain AD169); [2]): 1400 nM
CN(CCc1ccccn1)C(=O)Nc1ccc(-c2csc(N)n2)cc1 [Example 4]	–	–	1400 nM	126000 nM	–
CCCCN(CCCC)C(=O)Nc1ccc(-c2csc(N)n2)cc1 [Example 1, N-{4-(2-Amino-4-thiazolyl)phenyl}-N,N-dibutylurea]	–	–	800 nM	4100 nM	–
CCCCN(CCCC)C(=O)C(=O)Nc1ccc(-c2csc(N)n2)cc1 [Example 1, N-{4-(2-Amino-4-thiazolyl)phenyl}-N',N'-dibutylethanediamide]	–	–	–	–	EC50 (HSV-1 strain F or KOS; Human alphaherpesvirus 1, BHK-21, Group 2 Table 2 entries): 2900 nM; EC50 (HCMV (strain AD169); Human betaherpesvirus 5, AD169, Hs68, Group 2 Table 2 entries): 2600 nM
CC(C)(C)NC(=O)Nc1ccc(-c2csc(N)n2)cc1 [Example 12]	–	–	4400 nM	6000 nM	–
Nc1nc(-c2ccc(NC(=O)[C@@H]3CCCN3C(=O)C3CCCCC3)cc2)cs1 [Example 6]	16 nM	28000 nM	–	–	–
Nc1nc(-c2ccc(NC(=O)[C@@H]3CCC(=O)N3Cc3ccccc3)cc2)cs1 [Example 2]	2600 nM	22000 nM	–	–	–
